{"source": "patent US4596806A", "about": "“7-piperidino-1,2,3,5-tetrahydroimidazo[2,1-b]-quinazolin-2-one having platelet aggregation inhibitory activity” (Daiichi Seiyaku Co., Ltd., priority 1983, dated 1986)", "key": {"[1]": {"tested_on": "platelet aggregation", "experiment": "Test of Platelet Aggregation Inhibition (in vitro), rat PRP", "assay_type": "cell-based, rat (Wistar Imamichi)", "conditions": "rat blood, read-out: Platelet Aggregation Inhibitory Activity (in vitro: IC50)", "protocol": "(§1) The test was performed as follows in accordance with the method of Ashida et al, Thrombosis and Haemostasis, Vol. 40, p542 (1979).\n(§2) Blood was taken by puncture from the heart of a Wistar Imamichi rat under anesthesia with pentobarbital into a syringe containing 1/10 volume of a 3.13% aqueous solution of sodium citrate dihydrate, and the citrated blood was centrifuged to obtain a platelet-rich-plasma (PRP). In the same manner, citrated blood was collected from the vein of a healthy human who had not taken aspirin or any other anti-inflammatory agent since before 10 days, followed by centrifugation to obtain PRP. 0.005 ml of each test compound was added to 0.445 ml each of these PRP samples, and the system was warmed at 30° C. for 1 minute. 0.05 ml of an aggregation inducer (ADP or collagen) was then added thereto, and platelet aggregation was determined according to the method of Born, Nature, Vol. 194, p927 (1962). The inhibitory activity of platelet aggregation was expressed in terms of 50% inhibition concentration, and the results obtained are shown in Table 2."}, "[2]": {"tested_on": "platelet aggregation", "experiment": "Test of Platelet Aggregation Inhibition (in vitro), human PRP", "assay_type": "cell-based", "conditions": "for IC50: Homo sapiens, Platelet, human blood, read-out: Platelet Aggregation Inhibitory Activity (in vitro: IC50)", "protocol": "as §1, §2"}, "[3]": {"tested_on": "platelet aggregation", "experiment": "Test of Platelet Aggregation Inhibition (ex vivo, p.o.)", "assay_type": "in vivo, rat (male Wistar Imamichi)", "conditions": "for inhibition at 1 mg/kg / inhibition at 10 mg/kg: Rattus norvegicus, Platelet, po, 1 h, read-out: Platelet Aggregation Inhibitory Activity (ex vivo: % inhibition); for inhibition at 1 mg/kg: p.o. 1 mg/Kg; for inhibition at 10 mg/kg: p.o. 10 mg/Kg; for aggregation inhibitory activity ex vivo (in words): p.o. 10 mg/Kg or 1 mg/Kg, ADP- or collagen-induced"}, "[4]": {"tested_on": "circulatory system", "experiment": "Test of Influence on Circulatory System (blood pressure, heart beat)", "assay_type": "in vivo, rat (male normal SLC-Wistar)", "conditions": "p.o. 50 mg/Kg", "protocol": "5 or 6 male normal SLC-Wistar rats per group (body weight: 205-255 g) orally received 50 mg/Kg of the test compound, and the blood pressure (tail cuff method) and the heart beats were measured with the passage of time in order to elucidate influences of the test compound on the circulatory system."}, "[5]": {"experiment": "Solubility Test (water-solubility)", "assay_type": "physicochemical"}, "[6]": {"conditions": "pH 2, Tap Water, solution pH about 2"}}, "note": "Where a name gives a salt, the structure may show the parent alone. Read-outs that look alike come from different tables or passages of the source.", "data": [{"smiles": "Cl.Cl.Nc1ccc2c(c1)CN1CC(=O)NC1=N2", "note": "[BL-7-NH2, 7-amino-1,2,3,5-tetrahydroimidazo[2,1-b]quinazolin-2-one dihydrochloride]", "values": [{"measurement": "IC50", "setting": "[1]; inducer ADP", "value": 170000, "unit": "nM"}, {"measurement": "IC50", "setting": "[1]; inducer collagen", "value": 16000, "unit": "nM"}, {"measurement": "IC50", "setting": "[2]; inducer ADP", "value": 50000, "unit": "nM"}, {"measurement": "IC50", "setting": "[2]; inducer collagen", "value": 28000, "unit": "nM"}, {"measurement": "anti-platelet aggregation activity (in words)", "setting": "[2]; in vitro, Table 2 results (human and rat PRP)", "value": "scarcely exhibits platelet aggregation inhibitory activity"}]}, {"smiles": "Cc1cccc2c1CN1CC(=O)NC1=N2.Cl", "note": "[BL-3459, 6-methyl-1,2,3,5-tetrahydroimidazo[2,1-b]quinazolin-2-one hydrochloride]", "values": [{"measurement": "IC50", "setting": "[1]; inducer ADP", "value": 5000, "unit": "nM"}, {"measurement": "IC50", "setting": "[1]; inducer collagen", "value": 760, "unit": "nM"}, {"measurement": "inhibition at 1 mg/kg", "setting": "[3]; inducer ADP", "value": 12, "unit": "%"}, {"measurement": "inhibition at 1 mg/kg", "setting": "[3]; inducer collagen", "value": 41, "unit": "%"}, {"measurement": "inhibition at 10 mg/kg", "setting": "[3]; inducer ADP", "value": 31, "unit": "%"}, {"measurement": "inhibition at 10 mg/kg", "setting": "[3]; inducer collagen", "value": 54, "unit": "%"}, {"measurement": "aggregation inhibitory activity ex vivo (in words)", "setting": "[3]", "value": "cannot be regarded significant"}, {"measurement": "Increase in Heart Beat", "setting": "[4]; 1 hr after admin.", "value": 18, "unit": "%"}, {"measurement": "Reduction in Blood Pressure", "setting": "[4]; 1 hr after admin.", "value": 23, "unit": "%"}, {"measurement": "Increase in Heart Beat", "setting": "[4]; 2 hr after admin.", "value": 20, "unit": "%"}, {"measurement": "Reduction in Blood Pressure", "setting": "[4]; 2 hr after admin.", "value": 28, "unit": "%"}, {"measurement": "Increase in Heart Beat", "setting": "[4]; 3 hr after admin.", "value": 17, "unit": "%"}, {"measurement": "Reduction in Blood Pressure", "setting": "[4]; 3 hr after admin.", "value": 26, "unit": "%"}, {"measurement": "Increase in Heart Beat", "setting": "[4]; 5 hr after admin.", "value": 18, "unit": "%"}, {"measurement": "Reduction in Blood Pressure", "setting": "[4]; 5 hr after admin.", "value": 34, "unit": "%"}, {"measurement": "Increase in Heart Beat", "setting": "[4]; 6 hr after admin.", "value": 19, "unit": "%"}, {"measurement": "Reduction in Blood Pressure", "setting": "[4]; 6 hr after admin.", "value": 35, "unit": "%"}, {"measurement": "Reduction in Blood Pressure", "setting": "[4]; 24 hr after admin.", "value": 12, "unit": "%"}, {"measurement": "solubility", "setting": "[5]; Water at pH 4", "value": 10, "unit": "µg/mL"}, {"measurement": "solubility", "setting": "[5]; [6]", "value": 100, "unit": "µg/mL"}, {"measurement": "IC50", "setting": "[2]; inducer ADP", "value": 1700, "unit": "nM"}, {"measurement": "IC50", "setting": "[2]; inducer collagen", "value": 700, "unit": "nM"}]}, {"smiles": "O=C1CN2Cc3c(ccc(Cl)c3Cl)N=C2N1", "note": "[BL-4162, 6,7-dichloro-1,2,3,5-tetrahydro[2,1-b]quinazolin-2-one hydrochloride]", "values": [{"measurement": "IC50", "setting": "[1]; inducer ADP", "value": 800, "unit": "nM"}, {"measurement": "IC50", "setting": "[1]; inducer collagen", "value": 20, "unit": "nM"}, {"measurement": "inhibition at 1 mg/kg", "setting": "[3]; inducer ADP", "value": 10, "unit": "%"}, {"measurement": "inhibition at 1 mg/kg", "setting": "[3]; inducer collagen", "value": 33, "unit": "%"}, {"measurement": "inhibition at 10 mg/kg", "setting": "[3]; inducer ADP", "value": 8, "unit": "%"}, {"measurement": "inhibition at 10 mg/kg", "setting": "[3]; inducer collagen", "value": 53, "unit": "%"}, {"measurement": "aggregation inhibitory activity ex vivo (in words)", "setting": "[3]", "value": "cannot be regarded significant"}, {"measurement": "Increase in Heart Beat", "setting": "[4]; 1 hr after admin.", "value": 28, "unit": "%"}, {"measurement": "Reduction in Blood Pressure", "setting": "[4]; 1 hr after admin.", "value": 11, "unit": "%"}, {"measurement": "Increase in Heart Beat", "setting": "[4]; 2 hr after admin.", "value": 37, "unit": "%"}, {"measurement": "Reduction in Blood Pressure", "setting": "[4]; 2 hr after admin.", "value": 16, "unit": "%"}, {"measurement": "Increase in Heart Beat", "setting": "[4]; 3 hr after admin.", "value": 31, "unit": "%"}, {"measurement": "Reduction in Blood Pressure", "setting": "[4]; 3 hr after admin.", "value": 17, "unit": "%"}, {"measurement": "Increase in Heart Beat", "setting": "[4]; 4 hr after admin.", "value": 37, "unit": "%"}, {"measurement": "Reduction in Blood Pressure", "setting": "[4]; 4 hr after admin.", "value": 14, "unit": "%"}, {"measurement": "Increase in Heart Beat", "setting": "[4]; 5 hr after admin.", "value": 31, "unit": "%"}, {"measurement": "Reduction in Blood Pressure", "setting": "[4]; 5 hr after admin.", "value": 14, "unit": "%"}, {"measurement": "Increase in Heart Beat", "setting": "[4]; 6 hr after admin.", "value": 31, "unit": "%"}, {"measurement": "Reduction in Blood Pressure", "setting": "[4]; 6 hr after admin.", "value": 13, "unit": "%"}, {"measurement": "solubility", "setting": "[5]; Water at pH 4", "value": 10, "unit": "µg/mL"}, {"measurement": "solubility", "setting": "[5]; [6]", "value": 10, "unit": "µg/mL"}, {"measurement": "IC50", "setting": "[2]; inducer ADP", "value": 1200, "unit": "nM"}, {"measurement": "IC50", "setting": "[2]; inducer collagen", "value": 500, "unit": "nM"}]}]}
